Source: patent US7763588B2, “Method for increasing cognitive function and neurogenesis” (The Salk Institute for Biological Studies, priority 2003, dated 2010)
Entries after “also recorded” stand apart in the source; their conditions may differ.

What was measured:
[1] = tested on: female C57BL/6 mice; assay: Running wheel activity (wheel revolutions); assay type: in vivo; settings: runners, wheel about 4 hours daily after injection; Mars 20 mg/kg or PBN 30 mg/kg daily; compared with Runner/Saline
Method: (§1) Ninety-six female C57BL/6 mice, ten weeks old were purchased from Harlan SD and housed individually with a reversed day/night cycle: lights on at 10 p.m. and off at 10 a.m. The mice were divided into six groups of 16 mice each: Control/Saline (CS) Control/PBN (CP), Control/Mars (CM), Runner/Saline (RS), Runner/PBN (RP) and Runner/Mars (RM). Runners were moved into a cage with a running wheel (Lafayette Instruments) for 4 hours per day, from 10 a.m. to 2 p.m. The mice received daily injections of saline, N-tert-Butyl-phenylnitrone (PBN, 30 mg/kg) or 3′- and 4′-methylated epicatechin 1:1 (Mars, 20 mg/kg). Mice in the running groups were placed in cages with wheels after drug injection for about 4 hours daily.

[2] = tested on: female C57BL/6 mice; assay: Morris water maze spatial learning; assay type: in vivo; settings: Mars 20 mg/kg or PBN 30 mg/kg daily
Method: as §1, with “mg/kg).” for “mg/kg). Mice in the running groups were placed in cages with wheels after drug injection for about 4 hours daily.”
(§2) On day 10, 7 animals from each group were given an overdose of anesthetics and perfused transcardially with cold 4% paraformaldehyde in 0.1 M PBS to study the effect of the drugs on cell proliferation. […] On day 38 the remaining mice were perfused.
To assess spatial learning the mice were trained with two trials per day over eight days on the Morris water maze as described by Morris, J. Neurosci. Methods 11: 47-60 (1984), which is incorporated herein by reference in its entirety. The platform was hidden 1 cm below the surface of water, made opaque with white non-toxic paint. The starting points were changed every day. Each trial lasted either until the mouse had found the platform or for a maximum of 40 seconds. All mice were allowed to rest on the platform for 10 seconds at the end of each trial. The latency to the platform, length of swim path and swim speed was recorded semi-automatically by a video tracking system (Ethovision, Noldus).
To assess memory function mice were trained in the water maze for 8 days with 2 trials per day between days 29-36 of the experiment. […] However, when measuring swim speed, there was also a significant difference between the groups (F(5,47)=3.37, p<0.01), raising the possibility that the RM and RP animals performed better due enhanced motor rather than cognitive skills.
To further investigate whether the RM and RP had improved learning, the swimming distance was analyzed for all trials. There was no significant difference between the groups in an overall analysis (F(5,47)=1.55, p=0.19).

[3] = tested on: dentate gyrus; assay: BrdU-positive cell proliferation in the dentate gyrus (day 10); assay type: in vivo, mice; settings: runners, Mars 20 mg/kg or PBN 30 mg/kg daily
Method: (§3) During the first nine days animals also received daily intraperitoneal BrdU injections (Sigma, St. Louis, Mo.); dissolved in 0.9% NaCl, filtered sterile at 0.2 μm, 50 μg/g body weight at 10 mg/ml) to label dividing cells.
as §2
To confirm neurogenesis, immunohistochemistry for BrdU was performed on a 1:6 series of free-floating 40-μm coronal sections that were pretreated for BrdU immunohistochemistry by denaturing DNA, as described previously by van Praag et al., Procl. Natl. Acad. Sci. USA 96: 13427-13431 (1999), which is incorporated herein by reference in its entirety. The antibody used was mouse anti-BrdU (Boehringer Mannheim, Indianapolis, Ind.) 1:400. […] Cells were counted at 40× using an upright brightfield microscope (Olympus).
BrdU-positive cells were analyzed in mice that were allowed to survive for the first 10 days of the experiment. At this time point cell proliferation, but not neurogenesis can be assessed, since it takes about a month for a newly born cell to become a neuron (van Praag et al., Nature 415: 1030-1034 (2002), which is incorporated herein by reference in its entirety).

[4] = tested on: dentate gyrus; assay: Cell survival and neurogenesis in the dentate gyrus (BrdU labeling, day 38); assay type: in vivo; settings: mice that exercise; Mars 20 mg/kg or PBN 30 mg/kg daily
Method: as §3, §2
To confirm neurogenesis, immunohistochemistry for BrdU was performed on a 1:6 series of free-floating 40-μm coronal sections that were pretreated for BrdU immunohistochemistry by denaturing DNA, as described previously by van Praag et al., Procl. Natl. Acad. Sci. USA 96: 13427-13431 (1999), which is incorporated herein by reference in its entirety. The antibody used was mouse anti-BrdU (Boehringer Mannheim, Indianapolis, Ind.) 1:400. To visualize the BrdU-labeled cells, staining for BrdU with the peroxidase method was used (ABC system, with biotinylated donkey anti-mouse antibodies and diaminobenzadine as chromogen; Vector Laboratories, Burlingame, Calif.). Cells were counted at 40× using an upright brightfield microscope (Olympus).
We are currently processing the tissue of the animals that survived for 38 days to assess the effects of the drugs and exercise on the number of newborn neurons. […]

SMILES: CC(C)(C)[N+]([O-])=Cc1ccccc1 [PBN, N-tert-Butyl-phenylnitrone]
- number of wheel revolutions [1]: no difference between RS and RP
- swim speed ([2]; controls (no running wheel)): no difference between the runners and CP; also recorded: significantly faster than CM
- spatial memory performance / learning ([2]; mice that exercise): enhances spatial memory performance; also recorded: enhanced learning
- latency to the platform, analysis of variance per day ([2]; runners, 8 days of testing): significantly shorter latencies from day 6 onwards
- swim speed ([2]; runners): swam faster than CS and CM animals
- average number of BrdU-labeled cells per section (cell proliferation / cell genesis) [3]: the greatest increase; also recorded: more cell genesis in these animals than in all the other groups
- neurogenesis [4]: enhances neurogenesis
